Data on five compounds can be found in paper PMC2798597 (Biochemical pharmacology, 2009).

One data set deals with MCF-7. In words: MTT cytotoxicity / MDR reversal. It counts as cell-based, human. The settings on record: for fold-reversal: no FG020326 (reference).
For another data set, the system named is KBv200 (ABCB1). The data set is described as follows: MTT cytotoxicity / MDR reversal. It counts as cell-based, human. The settings on record: for IC50: Homo sapiens, KBv200, read-out: IC50 ± SD; for fold-reversal: KBv200 cells, drug alone, no FG020326 (reference).
The next data set relates to MCF-7/adr (ABCB1). The data set is described as follows: MTT cytotoxicity / MDR reversal. Particulars: for IC50: Homo sapiens, NCI/ADR-RES, read-out: IC50 ± SD; for fold-reversal: MCF-7/adr cells, drug alone, no FG020326 (reference). It counts as cell-based, human.
For the next data set, the system named is SW1573. The data set is described as follows: MTT cytotoxicity / MDR reversal. It counts as cell-based, human.
For another data set, the system named is SW1573/2R120 (LRP). In words: MTT cytotoxicity / MDR reversal. It counts as cell-based, human.
In a further data set the test system is KB. In words: MTT cytotoxicity / MDR reversal. The settings on record: for IC50: Homo sapiens, KB, read-out: IC50 ± SD; for fold-reversal: KB cells, drug alone, no FG020326 (reference). It counts as cell-based, human.
The nature of data set [1]: Paclitaxel plasma levels / pharmacokinetics in mice. It counts as in vivo, NIH mice. The settings on record: for AUC(0-t): AUC0→ 12, paclitaxel 18 mg/kg i.v.
For another data set, the system named is KBv200 cell xenografts. The data set is described as follows: MDR human carcinoma xenograft model. It counts as in vivo, athymic nude mice. In general terms: A xenograft is tissue or cells of one species grown in another, often human tumour cells in immunodeficient mice.
The test system of a further data set is S1. The data set is described as follows: MTT cytotoxicity / MDR reversal. It counts as cell-based.
The test system of the next data set is S1-M1-80 (ABCG2). The data set is described as follows: MTT cytotoxicity / MDR reversal. It counts as cell-based.
A further data set has as its system NIH3T3/MRP-4-2 (ABCC4). The data set is described as follows: MTT cytotoxicity / MDR reversal. It counts as cell-based, murine.
In the next data set the test system is KB-CV60 (ABCC1). The data set is described as follows: MTT cytotoxicity / MDR reversal. It counts as cell-based, human.
A further data set deals with KB-3-1. In words: MTT cytotoxicity / MDR reversal. It counts as cell-based, human.
The next data set has as its system NIH3T3. In words: MTT cytotoxicity / MDR reversal. It counts as cell-based, murine.
Setting [2] is: Homo sapiens, SW1573, read-out: IC50 ± SD.
[3] abbreviates: Homo sapiens, MCF7, read-out: IC50 ± SD.
Where [4] appears, read: paclitaxel experiment, paclitaxel 18 mg/kg i.p. q5d×3, FG020326 100 mg/kg p.o.
Where [5] appears, read: Mus musculus, NIH3T3, read-out: IC50 ± SD.
Where [6] appears, read: VCR experiment, VCR 0.2 mg/kg i.p. q2d×6, FG020326 100 mg/kg p.o. q2d×6.

Read-outs that look alike come from different tables or passages of the source.

Turning to `N.N.[Cl][Pt][Cl]` [Cisplatin, cisplatin, reference compound], the IC50 (as a rule, the concentration needed to halve the response being measured) in the data set on MCF-7 (read-out: IC50 ± SD, MCF-7 cells, drug alone, no FG020326) worked out at 3550 ± 213 nM.

On to `COc1cccc2c1C(=O)c1c(O)c3c(c(O)c1C2=O)C[C@@](O)(C(=O)CO)C[C@@H]3O[C@H]1C[C@H](N)[C@H](O)[C@H](C)O1` [Doxorubicin, doxorubicin, reference compound], for which the half-inhibitory concentration (IC50) in the data set with KBv200 (ABCB1) came to 979 ± 123 nM; with MCF-7/adr (ABCB1) it was 14300 ± 1420 nM; with SW1573 (setting [2]), 116 ± 24 nM; in the data set with MCF-7 (setting [3]), 81 ± 10 nM; with SW1573/2R120 (LRP) (setting [2]) it was 1540 ± 279 nM; in the data set with KB it was 20 ± 10 nM. Also, the fold-reversal result is recorded as “(1.0) fold” in the data set with KBv200 (ABCB1); “(1.0) fold” with MCF-7/adr (ABCB1); “(1.0) fold” with SW1573 (SW1573 cells, drug alone, no FG020326 (reference)); “(1.0) fold” in the data set on MCF-7 (MCF-7 cells, drug alone); “(1.0) fold” in the data set on SW1573/2R120 (LRP) (SW1573/2R120 cells, drug alone, no FG020326 (reference)); “(1.0) fold” with KB.

Take `CC(=O)O[C@H]1C(=O)[C@@]2(C)[C@H]([C@H](OC(=O)c3ccccc3)[C@]3(O)C[C@H](OC(=O)[C@H](O)[C@@H](NC(=O)c4ccccc4)c4ccccc4)C(C)=C1C3(C)C)[C@]1(OC(C)=O)CO[C@@H]1C[C@@H]2O` [Paclitaxel]: the IC50 in the data set on KBv200 (ABCB1) turned out to be 48.3 ± 4.12 nM; with MCF-7/adr (ABCB1), 340 ± 38.7 nM; with MCF-7 (setting [3]), 6.91 ± 0.903 nM; in the data set on KB it was 1.38 ± 0.148 nM. In addition, the fold-reversal entry with KBv200 (ABCB1) is listed as “(1.0) fold”; with MCF-7/adr (ABCB1) it was “(1.0) fold”; in the data set on MCF-7 (MCF-7 cells, drug alone), “(1.0) fold”; with KB, “(1.0) fold”. The area under the curve AUC(0-t) (as a rule, the area under the concentration-time curve up to a stated or last time point) in data set [1] (both, NIH, mouse, plasma, iv, 18 mg/kg, with FG020326 100 mg/kg p.o.) is 69400 ± 2260 ng·h/mL; in data set [1] (both, NIH, mouse, plasma, iv, 18 mg/kg, without FG020326) it was 73600 ± 5580 ng·h/mL. Besides, the total exposure AUC(0-inf) (in general, total exposure, with the tail of the curve extrapolated) in data set [1] (both, NIH, mouse, plasma, iv, 18 mg/kg, AUC0→ ∞, paclitaxel 18 mg/kg i.v., without FG020326) turned out to be 73700 ± 5570 ng·h/mL. Besides, the clearance (commonly the volume of plasma or blood freed of the substance per unit of time) in [1] (both, NIH, mouse, plasma, iv, 18 mg/kg, CL, paclitaxel 18 mg/kg i.v., without FG020326) is 0.0888 mL/min. Further, the MRT – broadly, a mean duration of stay, worked out from the concentration-time curve – in data set [1] (both, NIH, mouse, plasma, iv, 18 mg/kg, MRT, paclitaxel 18 mg/kg i.v., without FG020326) amounted to 1.54 ± 0.02 h. For the same compound, the half-life (in general, the time needed for the level to fall by half in the phase considered) in [1] (both, NIH, mouse, plasma, iv, 18 mg/kg, T1/2β, paclitaxel 18 mg/kg i.v., with FG020326 100 mg/kg p.o.) is 1.42 ± 0.08 h. Further, in data set [1] (both, NIH, mouse, plasma, iv, 18 mg/kg, Vd, paclitaxel 18 mg/kg i.v., without FG020326), the Vd (as a rule, a proportionality between amount in the body and measured concentration, not a real space) amounted to 0.0124 ± 0.0011 L. In data set [1] (paclitaxel 18 mg/kg i.v., without FG020326), this compound displayed a T1/2α of 0.55 ± 0.04 h. In addition, the “Growth Inhibition” value in the data set on KBv200 cell xenografts (setting [4]) is 8.1%. For the same compound, the “Post-experiment Weight (body weight)” value in the data set with KBv200 cell xenografts (setting [4]) was 24.4 ± 2.6 g. Also, the Weight of tumor in the data set with KBv200 cell xenografts (setting [4]) amounted to 2.06 ± 1.06 g.

As for `CC[C@@]1(O)C(=O)OCc2c1cc1n(c2=O)Cc2cc3c(CN(C)C)c(O)ccc3nc2-1` [Topotecan, topotecan], the fold-reversal entry is given as “(1.0) fold” in the data set on S1 (S1 cells, drug alone, no FG020326 (reference)) and “(1.0) fold” in the data set with S1-M1-80 (ABCG2) (S1-M1-80 cells, drug alone, no FG020326 (reference)). Also, the half-maximal inhibitory concentration (IC50) came to 84 ± 24 nM with S1 (read-out: IC50 ± SD) and 12000 ± 1280 nM in the data set on S1-M1-80 (ABCG2) (Homo sapiens, S1-M1-80, read-out: IC50 ± SD). In addition, the fold resistance in the data set on S1-M1-80 (ABCG2) (S1-M1-80 compared with S1 cells) came out at 143.2 fold.

Turning to `CC[C@]1(O)C[C@H]2CN(CCc3c([nH]c4ccccc34)[C@@](C(=O)OC)(c3cc4c(cc3OC)N(C=O)[C@H]3[C@@](O)(C(=O)OC)[C@H](OC(C)=O)[C@]5(CC)C=CCN6CC[C@]43[C@@H]65)C2)C1` [Vincristine, vincristine], the half-inhibitory concentration (IC50) with KBv200 (ABCB1) was determined as 1320 ± 256 nM; in the data set on MCF-7/adr (ABCB1), 4020 ± 656 nM; with NIH3T3/MRP-4-2 (ABCC4) (setting [5]), 7250 ± 779 nM; with KB-CV60 (ABCC1) (Homo sapiens, KB-CV60, read-out: IC50 ± SD), 88600 ± 8280 nM; in the data set on KB-3-1 (Homo sapiens, KB 3-1, read-out: IC50 ± SD), 7260 ± 724 nM; in the data set on NIH3T3 (setting [5]), 324 ± 24 nM. Besides, the IC50 in the data set on MCF-7 (setting [3]) stood at 59 ± 9 nM; with KB, 28 ± 9 nM. Also, the fold-reversal result in the data set on KBv200 (ABCB1) is “(1.0) fold”; in the data set with MCF-7/adr (ABCB1) it was “(1.0) fold”; with NIH3T3/MRP-4-2 (ABCC4) (NIH3T3/MRP-4-2 cells, drug alone, no FG020326 (reference)), “(1.0) fold”; in the data set on KB-CV60 (ABCC1) (KB-CV60 cells, drug alone, no FG020326 (reference)) it was “(1.0) fold”; in the data set on KB-3-1 (KB-3-1 cells, drug alone, no FG020326 (reference)), “(1.0) fold”; in the data set with NIH3T3 (NIH3T3 cells, drug alone, no FG020326 (reference)) it was “(1.0) fold”. The fold-reversal result in the data set on MCF-7 (MCF-7 cells, drug alone) was “(1.0) fold”; with KB, “(1.0) fold”. In addition, the “Post-experiment Weight (body weight)” value in the data set with KBv200 cell xenografts (setting [6]) stood at 25.6 ± 1.9 g. Further, the Weight of tumor with KBv200 cell xenografts (setting [6]) was found to be 2.92 ± 0.94 g.
